Measured values as given in the supplement of paper PMC10307832.

Assays:
Experiment in all cases: relative viability (nuclei count vs DMSO), 5 days (fraction); higher = more cells survive
[1] = compound: C1=CC=C(C(=C1)C2=CC=C(C=C2)C3=CSC4=C3C(=C(C(=O)N4)C#N)O)O + CS(=O)(=O)CCNCc1ccc(-c2ccc3ncnc(Nc4ccc(OCc5cccc(F)c5)c(Cl)c4)c3c2)o1 [Lapatinib] (partner 2 µM)
Outline: (§1)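 For relative viability, nuclei counts in treated wells were divided by those in vehicle wells. Lung cancer cell lines had been pin-tool dosed in 1536-well plates the day after seeding and cultured for 5 days, then fixed and stained in one step (final 0.05% Triton X-100, 1% formaldehyde, 1 ug/ml Hoechst) and imaged at 4×. Doses were one drug alone or a fixed anchor-drug dose plus five library-drug doses (not always all listed) in √10 steps, and values are duplicate-plate medians.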

Ricolinostat + OSI-027 = compound: O=C(CCCCCCNC(=O)c1cnc(N(c2ccccc2)c2ccccc2)nc1)NO [Ricolinostat] + COc1cccc2cc(-c3nc([C@H]4CC[C@H](C(=O)O)CC4)n4ncnc(N)c34)[nH]c12 [OSI-027] (partner 0.5 µM)
Outline: as §1

TGX 221 + Olaparib = compound: CC1=CN2C(=O)C=C(N=C2C(=C1)C(C)NC3=CC=CC=C3)N4CCOCC4 [TGX 221] + O=C(c1cc(Cc2n[nH]c(=O)c3ccccc23)ccc1F)N1CCN(C(=O)C2CC2)CC1 [Olaparib] (partner 8 µM)
Outline: as §1

[2] = compound: C1=CC=C(C(=C1)C2=CC=C(C=C2)C3=CSC4=C3C(=C(C(=O)N4)C#N)O)O + Cc1nc(Nc2ncc(C(=O)Nc3c(C)cccc3Cl)s2)cc(N2CCN(CCO)CC2)n1 [Dasatinib] (partner 0.075 µM)
Outline: as §1

TGX 221 + Palbociclib = compound: CC1=CN2C(=O)C=C(N=C2C(=C1)C(C)NC3=CC=CC=C3)N4CCOCC4 [TGX 221] + CC(=O)c1c(C)c2cnc(Nc3ccc(N4CCNCC4)cn3)nc2n(C2CCCC2)c1=O [Palbociclib] (partner 0.5 µM)
Outline: as §1

NCI-H1792
relative viability ([1]; first compound 0.253 µM): 0.543 | relative viability ([1]; first compound 0.8 µM): 0.854 | relative viability ([1]; first compound 2.53 µM): 0.92 | relative viability ([1]; first compound 8 µM): 0.658 | relative viability (Ricolinostat + OSI-027; first compound 0.253 µM): 0.709 | relative viability (Ricolinostat + OSI-027; first compound 0.8 µM): 0.693 | relative viability (Ricolinostat + OSI-027; first compound 2.53 µM): 0.759 | relative viability (TGX 221 + Olaparib; first compound 0.08 µM): 0.267 | relative viability (TGX 221 + Olaparib; first compound 0.253 µM): 0.385 | relative viability (TGX 221 + Olaparib; first compound 0.8 µM): 0.386 | relative viability (TGX 221 + Olaparib; first compound 2.53 µM): 0.383 | relative viability (TGX 221 + Olaparib; first compound 8 µM): 0.287 | relative viability ([2]; first compound 0.253 µM): 0.803 | relative viability ([2]; first compound 2.53 µM): 0.722 | relative viability ([2]; first compound 8 µM): 0.508 | relative viability (TGX 221 + Palbociclib; first compound 0.08 µM): 0.593 | relative viability (TGX 221 + Palbociclib; first compound 0.253 µM): 0.625 | relative viability (TGX 221 + Palbociclib; first compound 0.8 µM): 0.654 | relative viability (TGX 221 + Palbociclib; first compound 2.53 µM): 0.57 | relative viability (TGX 221 + Palbociclib; first compound 8 µM): 0.582
